Patent publication US20250302780A1, “METHOD OF TREATING PREMATURE EJACULATION IN HUMAN MALES WITHOUT SYMPTOMS OF BENIGN PROSTATIC HYPERTROPHY (BPH) USING TAMSULOSIN 0.2MG QOD WHICH DELAYS EJACULATION BY REDUCING THE RATE OF SECRETION AND TRANSPORT BY SEMINAL VESICLES AND PROSTATE IN THE GENITOURINARY TRACT” (Wustashire, priority 2024, published 2025)
Read-outs that look alike come from different tables or passages of the source.

What was measured:
[1] = Focused analysis of published BPH/LUTS studies: risk of abnormal ejaculation (anejaculation or significantly reduced ejaculate) with tamsulosin; format: in vivo, human
Protocol: To objectively determine an effective tamsulosin dose for treating premature ejaculation in patients without benign prostatic hypertrophy (BPH), a focused analysis of relevant well designed research studies that examined the abnormal ejaculation side effects of tamsulosin in BPH treatment based on combined data derived from multiple sources was conducted (www.accessdata.fda.gov, n.d.; Soliman et al, 2023; Shim et al., 2016). […] These studies focused on evaluating tamsulosin treatment outcomes in patients with BPH and lower urinary tract symptoms (LUTS). The analysis leveraged the identical mechanism of action of tamsulosin in both BPH/LUTS and premature ejaculation with respect to non-vascular smooth muscle relaxation in the genitourinary tract.
The graph plots administered tamsulosin quantity in mg on the x-axis against the calculated percentage risks of these dysfunctional sequelae on the y-axis.
Further, the FIG. 4 illustrates test data on calculated risk of abnormal or adverse ejaculatory side effects at different dosages. […] Quantitative data points are shown for tamsulosin at doses of 0.8 mg, 0.4 mg, and 0.2 mg taken either on a daily (QD) basis or every other day (QOD).

[2] = cited from earlier work
[3] = 0.2 mg QD, after 8 weeks (Zhang et al.); cited from earlier work
[4] = cited from earlier work; remark: listed apart in the source

**Q.** Which results are given for CCOc1ccccc1OCCN[C@H](C)Cc1ccc(OC)c(S(N)(=O)=O)c1 [tamsulosin]?
**A.** risk of ejaculatory sequelae ([1]; 0.4 mg QOD (every other day), calculated from 5-fold reduction): 1.68%; drop in abnormal ejaculatory risk likelihood ([1]; dose reduction 0.4 mg QD to 0.2 mg QD): ~2.15 fold; reduction of projected abnormal ejaculatory risk ([1]; halving 0.8 mg QD to 0.4 mg QD): 53.6%; risk of abnormal or adverse ejaculatory side effects ([2]; 0.4 mg QD (daily)): 8.4%; abnormal ejaculatory risk reduction ([2]; 0.4 mg converted from QD to QOD (Soliman et al.)): 5 fold; risk of abnormal or adverse ejaculatory side effects ([2]; 0.8 mg QD (daily)): 18.1%; increase of intravaginal ejaculation latency time (IELT) [3]: 1.14 min; risk of adverse events [3]: 2.6%; efficacy for mild to moderate BPH symptoms ([4]; 0.2 mg QD (Shim et al.)): effective; therapeutic efficacy of QD dosing versus alternating day dosing ([4]; QD vs alternating day (Soliman et al.)): clinically similar
